# Experimental data taken from US7166738B2, “Non-nucleoside reverse transcriptase inhibitors” (Roche Palo Alto LLC, priority 2004, dated 2007).
row,Structure (SMILES),melting point
1,"CCc1ccc(CC(=O)Nc2ccc(S(N)(=O)=O)cc2)cc1Oc1cc(C#N)cc(C(F)F)c1 [Compound I-91, 2-[3-(3-Cyano-5-difluoromethyl-phenoxy)-4-ethyl-phenyl]-N-(4-sulfamoyl-phenyl)-acetamide]",188 to 198 °C
2,"COc1ccc(CC(=O)Nc2ccc(S(N)(=O)=O)cc2)cc1Oc1cc(C#N)cc(C(F)F)c1 [Compound I-92, 2-[3-(3-Cyano-5-difluoromethyl-phenoxy)-4-methoxy-phenyl]-N-(4-sulfamoyl-phenyl)-acetamide]",213.9 to 214.2 °C
3,"COc1ccc(CC(=O)Nc2ccc(S(N)(=O)=O)cc2C)cc1Oc1cc(C#N)cc(C(F)F)c1 [Compound I-93, 2-[3-(3-Cyano-5-difluoromethyl-phenoxy)-4-methoxy-phenyl]-N-(2-methyl-4-sulfamoyl-phenyl)-acetamide]",175 to 177.2 °C
4,"COc1ccc(CC(=O)Nc2ccc(S(N)(=O)=O)cc2Cl)cc1Oc1cc(C#N)cc(C(F)F)c1 [Compound I-94, N-(2-Chloro-4-sulfamoyl-phenyl)-2-[3-(3-cyano-5-difluoromethyl-phenoxy)-4-methoxy-phenyl]-acetamide]",185 to 187.9 °C
5,"CC(F)(F)c1cc(C#N)cc(Oc2c(Cl)ccc(CC(=O)Nc3ccc(S(N)(=O)=O)cc3)c2F)c1 [Compound I-95, 2-{4-Chloro-3-[3-cyano-5-(1,1-difluoro-ethyl)-phenoxy]-2-fluoro-phenyl}-N-(4-sulfamoyl-phenyl)-acetamide]",207 to 209.8 °C
6,"Cc1cc(S(N)(=O)=O)ccc1NC(=O)Cc1ccc(Cl)c(Oc2cc(C#N)cc(C(C)(F)F)c2)c1F [Compound I-96, 2-{4-Chloro-3-[3-cyano-5-(1,1-difluoro-ethyl)-phenoxy]-2-fluoro-phenyl}-N-(2-methyl-4-sulfamoyl-phenyl)-acetamide]",198.5 to 201 °C
7,"CC(F)(F)c1cc(C#N)cc(Oc2c(Cl)ccc(CC(=O)Nc3ccc(S(N)(=O)=O)cc3Cl)c2F)c1 [Compound I-97, 2-{4-Chloro-3-[3-cyano-5-(1,1-difluoro-ethyl)-phenoxy]-2-fluoro-phenyl}-N-(2-chloro-4-sulfamoyl-phenyl)-acetamide]",192 to 197.6 °C
8,"CCC(=O)N(C)S(=O)(=O)c1ccc(NC(=O)Cc2ccc(Cl)c(Oc3cc(Cl)cc(C#N)c3)c2F)c(C)c1 [Compound I-99, 2-[4-Chloro-3-(3-chloro-5-cyano-phenoxy)-2-fluoro-phenyl]-N-[2-methyl-4-(methyl-propionyl-sulfamoyl)-phenyl]-acetamide]",212 to 216.9 °C
9,"N#Cc1cc(Cl)cc(Oc2c(Cl)ccc(CC(=O)Nc3ccc(S(N)(=O)=O)cc3Cl)c2F)c1 [Compound I-100, 2-[4-Chloro-3-(3-chloro-5-cyano-phenoxy)-2-fluoro-phenyl]-N-(2-chloro-4-sulfamoyl-phenyl)-acetamide]",234.4 to 234.9 °C
10,"COc1cc(CC(=O)Nc2ccc(S(N)(=O)=O)cc2)cc(Oc2cc(C#N)ccc2Cl)c1 [Compound I-102, 2-[3-(2-Chloro-5-cyano-phenoxy)-5-methoxy-phenyl]-N-(4-sulfamoyl-phenyl)-acetamide]",180.5 to 181.3 °C
11,"COc1cc(CC(=O)Nc2ccc(S(N)(=O)=O)cc2C)cc(Oc2cc(C#N)ccc2Cl)c1 [Compound I-103, 2-[3-(2-Chloro-5-cyano-phenoxy)-5-methoxy-phenyl]-N-(2-methyl-4-sulfamoyl-phenyl)-acetamide]",179.8 to 184 °C
12,"CCc1cc(CC(=O)Nc2ccc(S(N)(=O)=O)cc2C)cc(Oc2cc(C#N)ccc2Cl)c1 [Compound I-106, 2-[3-(2-Chloro-5-cyano-phenoxy)-5-ethyl-phenyl]-N-(2-methyl-4-sulfamoyl-phenyl)-acetamide]",231.6 to 233.1 °C
13,"CCc1cc(CC(=O)Nc2ccc(S(N)(=O)=O)cc2Cl)cc(Oc2cc(C#N)ccc2Cl)c1 [Compound I-107, 2-[3-(2-Chloro-5-cyano-phenoxy)-5-ethyl-phenyl]-N-(2-chloro-4-sulfamoyl-phenyl)-acetamide]",204 to 207 °C
14,"CNS(=O)(=O)c1ccc(NC(=O)Cc2ccc(Cl)c(Oc3cc(Cl)cc(C#N)c3)c2F)c(C)c1 [Compound I-108, 2-[4-Chloro-3-(3-chloro-5-cyano-phenoxy)-2-fluoro-phenyl]-N-(2-methyl-4-methylsulfamoyl-phenyl)-acetamide]",204.4 to 207.3 °C
15,"CN(C(=O)Cc1ccc(Cl)c(Oc2cc(Cl)cc(C#N)c2)c1F)c1ccccc1Cl [Compound I-111, 2-[4-Chloro-3-(3-chloro-5-cyano-phenoxy)-2-fluoro-phenyl]-N-(2-chloro-phenyl)-N-methyl-acetamide]",134 to 137.1 °C
16,"Cc1ccc(CC(=O)Nc2ccc(S(C)(=O)=O)cc2Cl)c(F)c1Oc1cc(C#N)cc(C(F)F)c1 [Compound I-112, N-(2-Chloro-4-methanesulfonyl-phenyl)-2-[3-(3-cyano-5-difluoromethyl-phenoxy)-2-fluoro-4-methyl-phenyl]-acetamide]",179.9 to 182 °C
17,"N#Cc1cc(Oc2c(F)c(CC(=O)Nc3ccc(S(N)(=O)=O)cc3)cc(Br)c2Br)cc(C(F)F)c1 [Compound I-114, 2-[4,5-Dibromo-3-(3-cyano-5-difluoromethyl-phenoxy)-2-fluoro-phenyl]-N-(4-sulfamoyl-phenyl)-acetamide]",144 to 147 °C
18,"Cc1cc(S(=O)(=O)N2CCSCC2)ccc1NC(=O)Cc1ccc(C)c(Oc2cc(Cl)cc(C#N)c2)c1 [Compound I-117, 2-[3-(3-Chloro-5-cyano-phenoxy)-4-methyl-phenyl]-N-[2-methyl-4-(thiomorpholine-4-sulfonyl)-phenyl]-acetamide]",151.9 to 155.3 °C

# Further lines, results first:
row,melting point,Structure (SMILES)
1,177 to 181 °C,"Cc1cc(S(=O)(=O)NCCN2CCOCC2)ccc1NC(=O)Cc1ccc(C)c(Oc2cc(Cl)cc(C#N)c2)c1 [Compound I-118, 2-[3-(3-Chloro-5-cyano-phenoxy)-4-methyl-phenyl]-N-[2-methyl-4-(2-morpholin-4-yl-ethylsulfamoyl)-phenyl]-acetamide]"
2,212 to 216.1 °C,"Cc1cc(S(N)(=O)=O)ccc1NC(=O)Cc1ccc(Cl)c(Oc2cc(C#N)cc(C(F)(F)F)c2)c1F [Compound I-120, 2-[4-Chloro-3-(3-cyano-5-trifluoromethyl-phenoxy)-2-fluoro-phenyl]-N-(2-methyl-4-sulfamoyl-phenyl)-acetamide]"
3,195.1 to 197.7 °C,"Cc1cc(S(=O)(=O)NC2CCC(O)CC2)ccc1NC(=O)Cc1ccc(C)c(Oc2cc(Cl)cc(C#N)c2)c1 (centres unmarked) [Compound I-121, 2-[3-(3-Chloro-5-cyano-phenoxy)-4-methyl-phenyl]-N-[4-(4-hydroxy-cyclohexylsulfamoyl)-2-methyl-phenyl]-acetamide]"
4,192.8 to 194.1 °C,"Cc1cc(S(N)(=O)=O)ccc1NC(=O)Cc1ccc(C)c(Oc2cc(Cl)cc(C#N)c2)c1 [Compound I-122, 2-[3-(3-Chloro-5-cyano-phenoxy)-4-methyl-phenyl]-N-(2-methyl-4-sulfamoyl-phenyl)-acetamide]"
5,194 to 194.9 °C,"Cc1ccc(CC(=O)Nc2ccc(S(N)(=O)=O)cc2Cl)cc1Oc1cc(Cl)cc(C#N)c1 [Compound I-123, 2-[3-(3-Chloro-5-cyano-phenoxy)-4-methyl-phenyl]-N-(2-chloro-4-sulfamoyl-phenyl)-acetamide]"
6,230.1 to 230.7 °C,"Cc1cc(C#N)cc(Oc2c(Cl)ccc(CC(=O)Nc3ccc(S(N)(=O)=O)cc3C)c2F)n1 [Compound I-124, 2-[4-Chloro-3-(4-cyano-6-methyl-pyridin-2-yloxy)-2-fluoro-phenyl]-N-(2-methyl-4-sulfamoyl-phenyl)-acetamide]"
7,74.3 to 76.5 °C,"Cc1cc(S(=O)(=O)CCC(=O)O)ccc1NC(=O)Cc1ccc(C)c(Oc2cc(Cl)cc(C#N)c2)c1 [Compound I-125, 3-(4-{2-[3-(3-Chloro-5-cyano-phenoxy)-4-methyl-phenyl]-acetylamino}-3-methyl-benzenesulfonyl)-propionic acid]"
8,171.7 to 172.6 °C,"Cc1cc(S(=O)(=O)NC2CCOCC2)ccc1NC(=O)Cc1ccc(C)c(Oc2cc(Cl)cc(C#N)c2)c1 [Compound I-128, 2-[3-(3-Chloro-5-cyano-phenoxy)-4-methyl-phenyl]-N-[2-methyl-4-(tetrahydro-pyran-4-ylsulfamoyl)-phenyl]-acetamide]"
9,172.2 to 173.4 °C,"Cc1cc(S(=O)(=O)NCC(C)O)ccc1NC(=O)Cc1ccc(C)c(Oc2cc(Cl)cc(C#N)c2)c1 (centres unmarked) [Compound I-129, 2-[3-(3-Chloro-5-cyano-phenoxy)-4-methyl-phenyl]-N-[4-(2-hydroxy-propylsulfamoyl)-2-methyl-phenyl]-acetamide]"
10,155.6 to 156.6 °C,"CSCCNS(=O)(=O)c1ccc(NC(=O)Cc2ccc(C)c(Oc3cc(Cl)cc(C#N)c3)c2)c(C)c1 [Compound I-130, 2-[3-(3-Chloro-5-cyano-phenoxy)-4-methyl-phenyl]-N-[2-methyl-4-(2-methylsulfanyl-ethylsulfamoyl)-phenyl]-acetamide]"
11,159.9 to 162.8 °C,"CSCCCNS(=O)(=O)c1ccc(NC(=O)Cc2ccc(C)c(Oc3cc(Cl)cc(C#N)c3)c2)c(C)c1 [Compound I-131, 2-[3-(3-Chloro-5-cyano-phenoxy)-4-methyl-phenyl]-N-[2-methyl-4-(3-methylsulfanyl-propylsulfamoyl)-phenyl]-acetamide]"
12,184.1 to 185.5 °C,"COc1cc(CC(=O)Nc2ccc(S(N)(=O)=O)cc2)cc(Oc2cc(Cl)cc(C#N)c2)c1 [Compound I-132, 2-[3-(3-Chloro-5-cyano-phenoxy)-5-methoxy-phenyl]-N-(4-sulfamoyl-phenyl)-acetamide]"
13,169.9 to 171.1 °C,"COc1cc(CC(=O)Nc2ccc(S(N)(=O)=O)cc2C)cc(Oc2cc(Cl)cc(C#N)c2)c1 [Compound I-133, 2-[3-(3-Chloro-5-cyano-phenoxy)-5-methoxy-phenyl]-N-(2-methyl-4-sulfamoyl-phenyl)-acetamide]"
14,159 to 161.1 °C,"COc1cc(CC(=O)Nc2ccc(S(N)(=O)=O)cc2Cl)cc(Oc2cc(Cl)cc(C#N)c2)c1 [Compound I-136, 2-[3-(3-Chloro-5-cyano-phenoxy)-5-methoxy-phenyl]-N-(2-chloro-4-sulfamoyl-phenyl)-acetamide]"
